{"source": "the supplement of paper PMC10307832", "test_in_all_cases": "relative viability (nuclei count vs DMSO), 5 days (fraction); higher = more cells survive", "key": {"NCI-H2228": {"tested_on": "NCI-H2228", "outline": "(§1)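 Relative viability divides the nuclei count in treated wells by that in vehicle wells. Lung cancer cell lines were seeded in 1536-well plates, dosed by pin tool the next day, and fixed and stained after 5 days in one step with final 0.05% Triton X-100, 1% formaldehyde and 1 ug/ml Hoechst. Dosing was a single drug or a fixed anchor-drug dose plus five library-drug doses (not always all listed) in √10 steps, and values are medians of duplicate plates imaged at 4×.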"}, "SW 1573": {"tested_on": "SW 1573", "outline": "as §1"}, "HOP-62": {"tested_on": "HOP-62", "outline": "as §1"}, "NCI-H2126": {"tested_on": "NCI-H2126", "outline": "as §1"}, "NCI-H1792": {"tested_on": "NCI-H1792", "outline": "as §1"}, "LOU-NH91": {"tested_on": "LOU-NH91", "outline": "as §1"}, "NCI-H647": {"tested_on": "NCI-H647", "outline": "as §1"}, "NCI-H1975": {"tested_on": "NCI-H1975", "outline": "as §1"}, "LC-2-ad": {"tested_on": "LC-2-ad", "outline": "as §1"}, "NCI-H460": {"tested_on": "NCI-H460", "outline": "as §1"}, "SK-LU-1": {"tested_on": "SK-LU-1", "outline": "as §1"}, "NCI-H1734": {"tested_on": "NCI-H1734", "outline": "as §1"}, "PC-3 [JPC-3]": {"tested_on": "PC-3 [JPC-3]", "outline": "as §1"}, "HCC-15": {"tested_on": "HCC-15", "outline": "as §1"}, "A-427": {"tested_on": "A-427", "outline": "as §1"}, "HCC-78": {"tested_on": "HCC-78", "outline": "as §1"}, "NCI-H1915": {"tested_on": "NCI-H1915", "outline": "as §1"}, "NCI-H1755": {"tested_on": "NCI-H1755", "outline": "as §1"}, "RERF-LC-KJ": {"tested_on": "RERF-LC-KJ", "outline": "as §1"}, "NCI-H358": {"tested_on": "NCI-H358", "outline": "as §1"}, "LXF-289": {"tested_on": "LXF-289", "outline": "as §1"}, "NCI-H2347": {"tested_on": "NCI-H2347", "outline": "as §1"}}}
{"smiles": "O=C(O)c1ccc(-c2c[nH]c3ncc(-c4ccccc4)cc23)cc1C1CCCC1", "note": "+ CS(=O)(=O)CCNCc1ccc(-c2ccc3ncnc(Nc4ccc(OCc5cccc(F)c5)c(Cl)c4)c3c2)o1 [Lapatinib] (partner 2 µM)", "values": [{"measurement": "relative viability", "setting": "NCI-H2228; first compound 0.04 µM", "result": 1.17}, {"measurement": "relative viability", "setting": "NCI-H2228; first compound 0.1265 µM", "result": 1.41}, {"measurement": "relative viability", "setting": "NCI-H2228; first compound 0.4 µM", "result": 1.2}, {"measurement": "relative viability", "setting": "NCI-H2228; first compound 1.265 µM", "result": 0.362}, {"measurement": "relative viability", "setting": "SW 1573; first compound 0.04 µM", "result": 1.15}, {"measurement": "relative viability", "setting": "SW 1573; first compound 0.1265 µM", "result": 1.39}, {"measurement": "relative viability", "setting": "SW 1573; first compound 0.4 µM", "result": 1.14}, {"measurement": "relative viability", "setting": "SW 1573; first compound 1.265 µM", "result": 1.09}, {"measurement": "relative viability", "setting": "HOP-62; first compound 0.04 µM", "result": 1.23}, {"measurement": "relative viability", "setting": "HOP-62; first compound 0.1265 µM", "result": 0.993}, {"measurement": "relative viability", "setting": "HOP-62; first compound 0.4 µM", "result": 1.1}, {"measurement": "relative viability", "setting": "HOP-62; first compound 1.265 µM", "result": 0.897}, {"measurement": "relative viability", "setting": "NCI-H2126; first compound 0.04 µM", "result": 0.764}, {"measurement": "relative viability", "setting": "NCI-H2126; first compound 0.1265 µM", "result": 0.81}, {"measurement": "relative viability", "setting": "NCI-H2126; first compound 0.4 µM", "result": 0.734}, {"measurement": "relative viability", "setting": "NCI-H2126; first compound 1.265 µM", "result": 0.741}, {"measurement": "relative viability", "setting": "NCI-H1792; first compound 0.04 µM", "result": 0.77}, {"measurement": "relative viability", "setting": "NCI-H1792; first compound 0.1265 µM", "result": 0.942}, {"measurement": "relative viability", "setting": "NCI-H1792; first compound 0.4 µM", "result": 0.953}, {"measurement": "relative viability", "setting": "NCI-H1792; first compound 1.265 µM", "result": 0.847}, {"measurement": "relative viability", "setting": "LOU-NH91; first compound 0.04 µM", "result": 0.814}, {"measurement": "relative viability", "setting": "LOU-NH91; first compound 0.1265 µM", "result": 0.837}, {"measurement": "relative viability", "setting": "LOU-NH91; first compound 0.4 µM", "result": 0.766}, {"measurement": "relative viability", "setting": "LOU-NH91; first compound 1.265 µM", "result": 0.651}, {"measurement": "relative viability", "setting": "NCI-H647; first compound 0.04 µM", "result": 1.05}, {"measurement": "relative viability", "setting": "NCI-H647; first compound 0.1265 µM", "result": 1.12}, {"measurement": "relative viability", "setting": "NCI-H647; first compound 0.4 µM", "result": 1.13}, {"measurement": "relative viability", "setting": "NCI-H647; first compound 1.265 µM", "result": 0.801}, {"measurement": "relative viability", "setting": "NCI-H1975; first compound 0.04 µM", "result": 0.873}, {"measurement": "relative viability", "setting": "NCI-H1975; first compound 0.1265 µM", "result": 1.02}, {"measurement": "relative viability", "setting": "NCI-H1975; first compound 0.4 µM", "result": 1}, {"measurement": "relative viability", "setting": "NCI-H1975; first compound 1.265 µM", "result": 0.49}, {"measurement": "relative viability", "setting": "LC-2-ad; first compound 0.04 µM", "result": 1}, {"measurement": "relative viability", "setting": "LC-2-ad; first compound 0.1265 µM", "result": 1.02}, {"measurement": "relative viability", "setting": "LC-2-ad; first compound 0.4 µM", "result": 0.904}, {"measurement": "relative viability", "setting": "LC-2-ad; first compound 1.265 µM", "result": 0.803}, {"measurement": "relative viability", "setting": "NCI-H460; first compound 0.04 µM", "result": 0.897}, {"measurement": "relative viability", "setting": "NCI-H460; first compound 0.1265 µM", "result": 1.03}, {"measurement": "relative viability", "setting": "NCI-H460; first compound 0.4 µM", "result": 0.801}, {"measurement": "relative viability", "setting": "NCI-H460; first compound 1.265 µM", "result": 0.782}, {"measurement": "relative viability", "setting": "SK-LU-1; first compound 0.04 µM", "result": 0.874}, {"measurement": "relative viability", "setting": "SK-LU-1; first compound 0.1265 µM", "result": 0.831}, {"measurement": "relative viability", "setting": "SK-LU-1; first compound 0.4 µM", "result": 0.771}, {"measurement": "relative viability", "setting": "SK-LU-1; first compound 1.265 µM", "result": 0.488}, {"measurement": "relative viability", "setting": "NCI-H1734; first compound 0.04 µM", "result": 1.07}, {"measurement": "relative viability", "setting": "NCI-H1734; first compound 0.1265 µM", "result": 1.1}, {"measurement": "relative viability", "setting": "NCI-H1734; first compound 0.4 µM", "result": 0.955}, {"measurement": "relative viability", "setting": "NCI-H1734; first compound 1.265 µM", "result": 0.984}, {"measurement": "relative viability", "setting": "PC-3 [JPC-3]; first compound 0.04 µM", "result": 0.51}, {"measurement": "relative viability", "setting": "PC-3 [JPC-3]; first compound 0.1265 µM", "result": 0.489}, {"measurement": "relative viability", "setting": "PC-3 [JPC-3]; first compound 0.4 µM", "result": 0.466}, {"measurement": "relative viability", "setting": "PC-3 [JPC-3]; first compound 1.265 µM", "result": 0.459}, {"measurement": "relative viability", "setting": "HCC-15; first compound 0.04 µM", "result": 0.882}, {"measurement": "relative viability", "setting": "HCC-15; first compound 0.1265 µM", "result": 0.987}, {"measurement": "relative viability", "setting": "HCC-15; first compound 0.4 µM", "result": 0.838}, {"measurement": "relative viability", "setting": "HCC-15; first compound 1.265 µM", "result": 0.551}, {"measurement": "relative viability", "setting": "A-427; first compound 0.04 µM", "result": 0.965}, {"measurement": "relative viability", "setting": "A-427; first compound 0.1265 µM", "result": 1.06}, {"measurement": "relative viability", "setting": "A-427; first compound 0.4 µM", "result": 0.986}, {"measurement": "relative viability", "setting": "A-427; first compound 1.265 µM", "result": 0.935}, {"measurement": "relative viability", "setting": "HCC-78; first compound 0.04 µM", "result": 0.595}, {"measurement": "relative viability", "setting": "HCC-78; first compound 0.1265 µM", "result": 1.25}, {"measurement": "relative viability", "setting": "HCC-78; first compound 0.4 µM", "result": 0.979}, {"measurement": "relative viability", "setting": "HCC-78; first compound 1.265 µM", "result": 0.64}, {"measurement": "relative viability", "setting": "NCI-H1915; first compound 0.04 µM", "result": 1.05}, {"measurement": "relative viability", "setting": "NCI-H1915; first compound 0.1265 µM", "result": 1.03}, {"measurement": "relative viability", "setting": "NCI-H1915; first compound 0.4 µM", "result": 0.972}, {"measurement": "relative viability", "setting": "NCI-H1915; first compound 1.265 µM", "result": 0.743}, {"measurement": "relative viability", "setting": "NCI-H1755; first compound 0.04 µM", "result": 1.02}, {"measurement": "relative viability", "setting": "NCI-H1755; first compound 0.1265 µM", "result": 1.11}, {"measurement": "relative viability", "setting": "NCI-H1755; first compound 0.4 µM", "result": 1.02}, {"measurement": "relative viability", "setting": "NCI-H1755; first compound 1.265 µM", "result": 0.967}, {"measurement": "relative viability", "setting": "RERF-LC-KJ; first compound 0.04 µM", "result": 0.8}, {"measurement": "relative viability", "setting": "RERF-LC-KJ; first compound 0.1265 µM", "result": 0.848}, {"measurement": "relative viability", "setting": "RERF-LC-KJ; first compound 0.4 µM", "result": 0.832}, {"measurement": "relative viability", "setting": "RERF-LC-KJ; first compound 1.265 µM", "result": 0.825}, {"measurement": "relative viability", "setting": "NCI-H358; first compound 0.04 µM", "result": 0.438}, {"measurement": "relative viability", "setting": "NCI-H358; first compound 0.1265 µM", "result": 0.447}, {"measurement": "relative viability", "setting": "NCI-H358; first compound 0.4 µM", "result": 0.448}, {"measurement": "relative viability", "setting": "NCI-H358; first compound 1.265 µM", "result": 0.323}, {"measurement": "relative viability", "setting": "LXF-289; first compound 0.04 µM", "result": 0.96}, {"measurement": "relative viability", "setting": "LXF-289; first compound 0.1265 µM", "result": 0.936}, {"measurement": "relative viability", "setting": "LXF-289; first compound 0.4 µM", "result": 0.822}, {"measurement": "relative viability", "setting": "LXF-289; first compound 1.265 µM", "result": 0.619}, {"measurement": "relative viability", "setting": "NCI-H2347; first compound 0.04 µM", "result": 0.96}, {"measurement": "relative viability", "setting": "NCI-H2347; first compound 0.1265 µM", "result": 0.933}, {"measurement": "relative viability", "setting": "NCI-H2347; first compound 0.4 µM", "result": 0.9}, {"measurement": "relative viability", "setting": "NCI-H2347; first compound 1.265 µM", "result": 0.881}]}
